The record followed here is article PMC9324382 (Viruses, 2022).

The test concerns the target T1, SARS-CoV-2 M^pro (main protease) (Severe acute respiratory syndrome coronavirus 2, UniProt P0DTD1).
T1 construct: gene rep
The test can be described thus: FRET peptide cleavage assay, Morrison fit. It counts as biochemical.

By Ki is commonly meant a dissociation constant, usually derived from enzyme kinetics or from competition with a known ligand. A lower Ki goes with tighter binding. `O=c1c(O)c(-c2ccc(O)c(O)c2)oc2cc(O)ccc12` [Fisetin] returned a Ki of 41.8 ± 2.1 nM.
